# Results reported in publication PMC314469, “Protein Interaction Networks by Proteome Peptide Scanning” (PLoS Biology, 2004).
# System: Myo5 SH3 domain
# Test: SPOT analysis of cellulose-bound peptides (WISE), Myo5 SH3 domain (Dataset S4)
# Assay type: binding, Saccharomyces cerevisiae
# Settings: for The normalized value in BLU units: Myo5 SH3 domain
# [1] = SPOT analysis of membrane-bound peptides, normalized value (see methods)
# [2] = SPOT analysis of cellulose-bound 14-mer yeast proteome peptides, normalized value, mean where the peptide was synthesized more than once
# [3] = SPOT analysis of membrane-synthesized peptides probed with Myo5 SH3 domain, normalized value
# [4] = SPOT analysis of cellulose-bound peptides probed with Myo5 SH3 domain, normalized value
sequence,measurement,setting,value
KRNSKHAPFIPVKP,The normalized value in BLU units,[1],381.6 BLU
KRRSKSLPITPKSI,The normalized value in BLU units,[1],920.9 BLU
KRRSKSLPTTPGIR,The normalized value in BLU units,[1],592.0 BLU
KSIPRTKPNVPPLQ,The normalized value in BLU units,[1],343.4 BLU
KSLQKFEPRYPKTA,The normalized value in BLU units,[1],244.9 BLU
KSYRKADPTNPQGW,The normalized value in BLU units,[2],103.0 BLU
KTGRKTFPFLPYQI,The normalized value in BLU units,[1],466.0 BLU
KTKKKTVPVKPLQL,The normalized value in BLU units,[2],358.9 BLU
KTRNKPKPLWPQVK,"The normalized value in BLU units (SPOT analysis, Myo5 SH3)",[3],261.8 BLU
KTSTKAQPAEPQAE,The normalized value in BLU units,[1],166.8 BLU
KTVDKGLPMIPTYV,The normalized value in BLU units,[2],76.8 BLU
KVIRKGSPKSPAMV,The normalized value in BLU units,[1],495.7 BLU
KVLIKTLPVLPEAR,"The normalized value in BLU units (SPOT analysis, Myo5 SH3)",[3],236.7 BLU
KVNFRRIPTGPDSP,The normalized value in BLU units,[1],502.6 BLU
KVQIKKVPTDPSSS,The normalized value in BLU units,[1],191.2 BLU
KVSSKYDPDNPNKD,The normalized value in BLU units,[1],434.5 BLU
KWKSLFPPFFPCDI,"The normalized value in BLU units (SPOT analysis, Myo5 SH3)",[4],241.7 BLU
KWTIMPHPNRPNAA,The normalized value in BLU units,[2],428.7 BLU
KYCFKLVPPQPGSK,The normalized value in BLU units,[1],218.8 BLU
KYIIKTEPESPEED,The normalized value in BLU units,[2],245.5 BLU
LAAHKTKPSIPPKK,The normalized value in BLU units,[1],248.8 BLU
LAGIRLVPVLPILL,"The normalized value in BLU units (SPOT analysis, Myo5 SH3)",[3],152.2 BLU
LAIRLCWPPAPVTL,The normalized value in BLU units,[2],154.7 BLU
LAKDLIVPRRPEWN,"The normalized value in BLU units (SPOT analysis, Myo5 SH3)",[4],117125.4 BLU
LALLMTDPDAPSRT,The normalized value in BLU units,[2],177.5 BLU
LAPKREAPKPPANT,The normalized value in BLU units,[1],116079.9 BLU
LASDKGLPMIPAFV,"The normalized value in BLU units (SPOT analysis, Myo5 SH3)",[3],79.9 BLU
LASPFHDPILPRRT,The normalized value in BLU units,[2],288.3 BLU
LAYERPLPDLPSTI,"The normalized value in BLU units (SPOT analysis, Myo5 SH3)",[3],131.9 BLU
LDKGKHVPSKPVSN,The normalized value in BLU units,[1],200.9 BLU
LDLSKYGPLPPSRA,"The normalized value in BLU units (SPOT analysis, Myo5 SH3)",[3],154.0 BLU
LDPGKNTPGLPEET,"The normalized value in BLU units (SPOT analysis, Myo5 SH3)",[3],155.6 BLU
LDSMKNLPLNPSKK,The normalized value in BLU units,[2],268.3 BLU
LDTHKESPLRPKVR,The normalized value in BLU units,[1],199.3 BLU
LDVRRIYPKGPLLV,"The normalized value in BLU units (SPOT analysis, Myo5 SH3)",[3],231.6 BLU
LEDALHVPTNPEIL,"The normalized value in BLU units (SPOT analysis, Myo5 SH3)",[4],191.1 BLU
LEFPKDYPLSPPKL,The normalized value in BLU units,[1],134.8 BLU
LEFSHYAPTAPHVQ,"The normalized value in BLU units (SPOT analysis, Myo5 SH3)",[4],103.0 BLU
LELLLSLPTGPESK,"The normalized value in BLU units (SPOT analysis, Myo5 SH3)",[4],142.9 BLU
LFDEKVKPQIPQLR,"The normalized value in BLU units (SPOT analysis, Myo5 SH3)",[3],89.2 BLU
LFGIRNNPFIPITG,The normalized value in BLU units,[1],169.8 BLU
LFKRLPVPAPPMDS,"The normalized value in BLU units (SPOT analysis, Myo5 SH3)",[4],145.1 BLU
LGLHKWLPDIPLFE,The normalized value in BLU units,[1],167.8 BLU
LGPLKYAPHLPFSK,The normalized value in BLU units,[1],427.6 BLU
LGSEKSCPLAPAVA,"The normalized value in BLU units (SPOT analysis, Myo5 SH3)",[3],121.9 BLU
LIDFKDYPDVPKVP,"The normalized value in BLU units (SPOT analysis, Myo5 SH3)",[3],153.6 BLU
LITDKEYPVRPAYT,"The normalized value in BLU units (SPOT analysis, Myo5 SH3)",[3],136.3 BLU
LIWHKNKPTEPDNK,"The normalized value in BLU units (SPOT analysis, Myo5 SH3)",[3],155.4 BLU
LIWHKNKPTKPDNK,The normalized value in BLU units,[2],300.3 BLU
LIWHKSKPVKPTNK,The normalized value in BLU units,[1],353.6 BLU
LKDNRLLPSWPKRG,"The normalized value in BLU units (SPOT analysis, Myo5 SH3)",[3],518.0 BLU
LKDPKSFPPPPLKP,The normalized value in BLU units,[1],252.9 BLU
LKHTKNKPKNPDTA,"The normalized value in BLU units (SPOT analysis, Myo5 SH3)",[3],406.0 BLU
LKKQKAIPSSPCGM,The normalized value in BLU units,[1],306.9 BLU
LLAEHNGPKLPHIP,The normalized value in BLU units,[2],198.5 BLU
LLAKLPLPRDPRVA,The normalized value in BLU units,[2],343.8 BLU
LLEERNNPDIPVDK,"The normalized value in BLU units (SPOT analysis, Myo5 SH3)",[3],311.9 BLU
LLISHLFPTNPEFS,"The normalized value in BLU units (SPOT analysis, Myo5 SH3)",[4],413.9 BLU
LLKGYIPPYKPIVK,"The normalized value in BLU units (SPOT analysis, Myo5 SH3)",[4],168.7 BLU
LLLPLLLPPLPSVK,"The normalized value in BLU units (SPOT analysis, Myo5 SH3)",[4],6465.7 BLU
LLPTKLIPSIPGGK,"The normalized value in BLU units (SPOT analysis, Myo5 SH3)",[3],172.0 BLU
LLQSLRLPTTPTER,The normalized value in BLU units,[2],124.6 BLU
LLVTKERPRFPEDD,The normalized value in BLU units,[1],33.7 BLU
LLYLMTYPQQPMVK,The normalized value in BLU units,[2],161.7 BLU
LMSLKRFPQLPSNT,"The normalized value in BLU units (SPOT analysis, Myo5 SH3)",[3],347.7 BLU
LNATKISPSAPSKD,The normalized value in BLU units,[1],114.4 BLU
LNFKRLLPRDPSEK,"The normalized value in BLU units (SPOT analysis, Myo5 SH3)",[3],553.7 BLU
LNFPKNIPTIPFYV,"The normalized value in BLU units (SPOT analysis, Myo5 SH3)",[3],255.7 BLU
LNGLKSSPADPHLS,The normalized value in BLU units,[1],152.9 BLU
LNKTKLLPQSPILN,The normalized value in BLU units,[1],117.8 BLU
LNLSKDAPVPPAPE,The normalized value in BLU units,[1],161.0 BLU
LNPNRRAPRRPLST,"The normalized value in BLU units (SPOT analysis, Myo5 SH3)",[3],8004.0 BLU
